Measured values published in patent US20160151369A1, “SUBSTITUTED 3-PHENYLPROPYLAMINE DERIVATIVES FOR THE TREATMENT OF OPHTHALMIC DISEASES AND DISORDERS” (ACUCELA INC., priority 2013, published 2016).
Where two headings read alike, the source gives them in different places.

Experiments:
[1] = test system: isomerase (recovery of 11-cis-retinal after bleaching); assay: In vivo murine isomerase assay (Table 3); conditions: Mus musculus, po, mice
Method: The capability of compounds described herein to inhibit isomerase was determined by an in vivo murine isomerase assay. […] The recovery of 11-cis-retinal after bleaching can be used to estimate the activity of isomerase in vivo. Delayed recovery, as represented by lower 11-cis-retinal oxime levels, indicates inhibition of isomerization reaction.
Mice were gavaged with the test compound. […] The mice were allowed to recover 2 hours in the dark. The animals were then sacrificed by carbon dioxide inhalation. Retinoids were extracted from the eye and the regeneration of 11-cis-retinal was assessed at various time intervals.
After the mice were sacrificed, the eyes were immediately removed and placed in liquid nitrogen for storage.
The eyes were placed in 500 μL of bis-tris propane buffer (10 mM, pH˜7.3) and 20 μL of 0.8M hydroxile amine (pH˜7.3). The eyes were cut up into small pieces with small iris scissors and then thoroughly homogenized at 30000 rpm with a mechanical homogenizer (Polytron PT 1300 D) in the tube until no visible tissue remained. 500 μL of methanol and 500 μL of heptane were added to each tube. The tubes were attached to a vortexer so that the contents were mixed thoroughly for 15 minutes in room temperature. The organic phase was separated from the aqueous phase by centrifugation for 10 min at 13K rpm, 4° C. 240 μL of the solution from the top layer (organic phase) was removed and transferred to clean 300 μl glass inserts in HPLC vials using glass pipette and the vials were crimped shut tightly.
The samples were analyzed on an Agilent 1100 HPLC system with normal phase column: SILICA (Beckman Coutlier, dp 5 μm, 4.6 mM×250 mM). […] Loading volume for each sample was 100 μl; detection wavelength was 360 nm. The area under the curve for 11-cis retinal oxime was calculated by Agilent Chemstation software and was recorded manually. Data processing was performed using Prizm software.
Positive control mice (no compound administered) were sacrificed fully dark-adapted and the eye retinoids analyzed. Light (bleached) control mice (no compound administered) were sacrificed and retinoids isolated and analyzed immediately after light treatment.
A time course study was performed to determine the isomerase inhibitory activity of the test compound. […] The animals were then “photo-bleached” (5000 Lux white light for 10 minutes) at 2, 4, 8, 16 and 24 hours after dosing, and returned to darkness to allow recovery of the 11-cis-retinal content of the eyes. Mice were sacrificed 2 hours after bleaching, eyes were enucleated, and retinoid content is analyzed by HPLC.
Recovery control mice (vehicle-only treated) were light-treated and left to recover for 2 hours in the dark before sacrifice and analysis. Light control mice (vehicle only treated) were sacrificed for analysis immediately after photo-bleaching.
An in vivo dose response isomerase inhibition study was performed with test compound. […] Recovery and retinoid analysis were performed as described above. Dark control mice were vehicle-only treated, sacrificed fully dark adapted without light treatment, and analyzed. Recovery control mice and light control mice were included in the study as per the initial phase.

[2] = test system: regeneration of 11-cis-retinal (isomerase); assay: Single dose time course in the in vivo isomerase assay at 0.3 mg/kg (compound A vs compound D); conditions: BALB/c mice, single oral dose 0.3 mg/kg; for inhibition at 0.3 mg/kg: Mus musculus, read-out: Percent Inhibition, 0.3 mg/kg, Avg. % Inhibition
Method: (§1) All test compounds were stored at room temperature, dessicated.
On the day prior to dose administration 3-amino-1-(3-((tetrahydro-2H-pyran-4-yl)methoxy)phenyl)propan-1-ol (compound A) and 3-amino-1-(3-((tetrahydro-2H-pyran- 2-yl)methoxy)phenyl)propan-1-ol (compound D) were weighed into new empty glass vials. The compounds were dissolved in di-water at the concentration of 0.068 mg/mL and stored overnight at 4° C.
52 Male BALB/c mice (Charles River Laboratories) were used for this study. The mice were approximately 8 weeks at the initiation of dosing with an average body weight of 23 grams.
The day prior to dose administration 52 BALB/c mice were placed into a dark room and dark adapted for a minimum of 12 hours prior to dose administration. The mice were maintained in the dark for the duration of the study.
Each animal was removed from its cage and dosed accordingly to the study design in Table 10 (see below). Each animal was administered 0.1 mL of the appropriate test article or vehicle orally using a 1 mL syringe fitted with a 23 gauge oral gavage needle. At 2, 4, 6, 8, 16 or 24 hours following dose administration, animals were removed from the dark and exposed to 5000 Lux white light for 10 minutes to photobleach their eyes. Following the completion of the photobleach the animals were returned to the dark for 2 hours to allow for the regeneration of 11-cis-retinal in the eyes. Two hours after photobleaching each animal was euthanized with carbon dioxide followed by cervical dislocation, in the dark under red light. The light control group was euthanized immediately following photobleaching. Immediately following the cervical dislocation both eyes of each animal were removed and transferred into separate tubes, flash frozen in liquid nitrogen and stored in the dark at −80° C. until processing and analysis.
(§2) All sample processing procedures were performed in the dark under red light.
Extracted samples were analyzed using an Agilent 1100 HPLC system according to the procedure outlined in Table 12 (see below)
(§3) HPLC analysis of the eyes measures the peak area units of the 110 cis-Ral-Oxime_syn. Signal.
(§4) Data analysis % inhibition (drug vs. recovery control). % control (drug vs. light control), and One-way ANOVA (followed by Tukey's Multiple Comparison) were performed using peak area units and performed by Prism software. Data are represented as mean and standard deviation.

[3] = test system: retinal isomerase activity (regeneration of 11-cis-retinal); assay: Comparative in vivo murine isomerase assay, dose response (compound A vs compound D); parameters: species or system BALB/c mice
Method: as §1
On the day prior to dose administration compound A and compound D were weighed into new empty glass vials. The compounds were dissolved in di-water at the concentration of 0.833 mg/mL compound A and 0.892 mg/mL compound D, serially diluted into various concentrations, and stored overnight at 4 OC.
56 Male BALB/c mice (Charles River Laboratories) were used for this study. The mice were approximately 8 weeks at the initiation of dosing with an average body weight of 24 grams.
The day prior to dose administration 56 BALB/c mice were placed into a dark room and dark adapted for a minimum of 12 hours prior to dose administration. The mice were maintained in the dark for the duration of the study.
Each animal was removed from its cage and dosed accordingly to the study design in Table 4 (see below). Each animal was administered 0.1 mL of the appropriate compound or vehicle via oral gavage using a 1 mL syringe fitted with a 23 gauge oral gavage needle. Two hours following dose administration, animals were removed from the dark and exposed to 5000 Lux white light for 10 minutes to photobleach their eyes.
Following the completion of the photobleach the animals were returned to the dark for 2 hours to allow for the regeneration of 11-cis-retinal in the eyes. Two hours after photobleaching each animal was euthanized with carbon dioxide followed by cervical dislocation, in the dark under red light. The light control group was euthanized immediately following photobleaching. Immediately following the cervical dislocation both eyes of each animal were removed and transferred into separate tubes, flash frozen in liquid nitrogen and stored in the dark at −80° C. until processing and analysis.
as §2
Extracted samples were analyzed using an Agilent 1100 HPLC system according to the procedure outlined in Table 6 (see below)
as §3, §4

## NCC[C@@H](O)c1cccc(OCC2CCOCC2)c1 [Example 1]
[1]; 2 h, Dose 0.03 mg/kg
  inhibition at 0.03 mg/kg: -2.7%
[1]; 2 h, Dose 0.1 mg/kg
  inhibition at 0.1 mg/kg: 3.4%
[1]; 2 h
  inhibition at 0.3 mg/kg: 58.4%
  inhibition at 0.81 mg/kg: 98.2%
  inhibition at 1 mg/kg: 96.9%
[1]; 2 h, Dose 0.5 mg/kg
  inhibition at 0.5 mg/kg: 89.9%
[1]; 2 h, Dose 3 mg/kg
  inhibition at 3 mg/kg: 101%
[1]; 4 h
  inhibition at 0.3 mg/kg: 15.7%
  inhibition at 0.81 mg/kg: 87.9%
  inhibition at 1 mg/kg: 91.1%
[1]; 6 h
  inhibition at 0.81 mg/kg: 75.8%
[1]; 8 h
  inhibition at 0.3 mg/kg: 10.4%
  inhibition at 0.81 mg/kg: 51.8%
  inhibition at 1 mg/kg: 62%
[1]; 16 h
  inhibition at 0.3 mg/kg: -2.7%
  inhibition at 0.81 mg/kg: 5.5%
  inhibition at 1 mg/kg: -1.2%
[1]; 24 h
  inhibition at 0.3 mg/kg: -4.4%
  inhibition at 0.81 mg/kg: -4.8%
  inhibition at 1 mg/kg: 3.8%
[2]; Time Point 2 Hours
  Percent Control, 0.3 mg/kg (average): 2.0%
  inhibition at 0.3 mg/kg: 98%
[2]; Time Point 4 Hours
  Percent Control, 0.3 mg/kg (average): 11.5%
  inhibition at 0.3 mg/kg: 88.5%
[2]; Time Point 6 Hours
  Percent Control, 0.3 mg/kg (average): 43.7%
  inhibition at 0.3 mg/kg: 56.3%
[2]; Time Point 8 Hours
  Percent Control, 0.3 mg/kg (average): 79.8%
  inhibition at 0.3 mg/kg: 20.2%
[2]; Time Point 16 Hours
  Percent Control, 0.3 mg/kg (average): 98.5%
  inhibition at 0.3 mg/kg: 1.5%
[2]; Time Point 24 Hours
  Percent Control, 0.3 mg/kg (average): 95.8%
  inhibition at 0.3 mg/kg: 4.2%
[3]; BALB/c mice, single oral dose, 2 h, dose response experiment
  dose at which 11-cis-retinal recovery was inhibited by 50% (called IC50): 0.17 mg/kg
[3]; Mus musculus, po, 2 h, BALB/c mice, single oral dose 0.03 mg/kg, bleach 2 h after dose, drug vs. recovery control, read-out: Percent Inhibition at 2 Hours, Avg. % Inhibition
  inhibition at 0.03 mg/kg: -44.1%
[3]; Mus musculus, po, 2 h, BALB/c mice, single oral dose 0.1 mg/kg, bleach 2 h after dose, drug vs. recovery control, read-out: Percent Inhibition at 2 Hours, Avg. % Inhibition
  inhibition at 0.1 mg/kg: -9.8%
[3]; Mus musculus, po, 2 h, BALB/c mice, single oral dose 0.3 mg/kg, bleach 2 h after dose, drug vs. recovery control, read-out: Percent Inhibition at 2 Hours, Avg. % Inhibition
  inhibition at 0.3 mg/kg: > 90%
[3]; Mus musculus, po, 2 h, BALB/c mice, single oral dose 0.5 mg/kg, bleach 2 h after dose, drug vs. recovery control, read-out: Percent Inhibition at 2 Hours, Avg. % Inhibition
  inhibition at 0.5 mg/kg: ~100%
[3]; Mus musculus, po, 2 h, BALB/c mice, single oral dose 1 mg/kg, bleach 2 h after dose, drug vs. recovery control, read-out: Percent Inhibition at 2 Hours, Avg. % Inhibition
  inhibition at 1 mg/kg: 100%
[3]; Mus musculus, po, 2 h, BALB/c mice, single oral dose 3 mg/kg, bleach 2 h after dose, drug vs. recovery control, read-out: Percent Inhibition at 2 Hours, Avg. % Inhibition
  inhibition at 3 mg/kg: 105%
[3]; Mus musculus, BALB/c mice, single oral dose 0.03 mg/kg, bleach 2 h after dose, read-out: Percent control at 2 Hours (Avg. % Inhibition)
  activity at 0.03 mg/kg: 144%
[3]; Mus musculus, BALB/c mice, single oral dose 0.1 mg/kg, bleach 2 h after dose, read-out: Percent control at 2 Hours (Avg. % Inhibition)
  activity at 0.1 mg/kg: 110%
[3]; Mus musculus, BALB/c mice, single oral dose 0.3 mg/kg, bleach 2 h after dose, read-out: Percent control at 2 Hours (Avg. % Inhibition)
  activity at 0.3 mg/kg: 7.6%
[3]; Mus musculus, BALB/c mice, single oral dose 0.5 mg/kg, bleach 2 h after dose, read-out: Percent control at 2 Hours (Avg. % Inhibition)
  activity at 0.5 mg/kg: 0.7%
[3]; Mus musculus, BALB/c mice, single oral dose 1 mg/kg, bleach 2 h after dose, read-out: Percent control at 2 Hours (Avg. % Inhibition)
  activity at 1 mg/kg: -0.4%
[3]; Mus musculus, BALB/c mice, single oral dose 3 mg/kg, bleach 2 h after dose, read-out: Percent control at 2 Hours (Avg. % Inhibition)
  activity at 3 mg/kg: -5.2%
[3]; dose response experiment, 2 h
  dose showing nearly 100% inhibition: 0.5 mg/kg
  times more active than compound D, by dose for nearly 100% inhibition: approximately 6 ×
  times more active than compound D, by inhibition at a dose of 0.3 mg/kg: greater than 10 ×
